These are literature values, as cited in US20020160936A1, “HCV E2 PROTEIN BINDING AGENTS FOR TREATMENT OF HEPATITIS C VIRUS INFECTION” (priority 1999, published 2002).

For the series, the system named is hepatitis C virus. Conditions: subjects with chronic hepatitis C.

For the substance interferon-alpha, the long-term cure rate entry was “less than 10%”.
